Target: T1, Src^32K (Mus musculus, UniProt P05480)
T1 construct: mouse Src^85-535 (Src^32K); GST (cleaved yes); made in house; host or cells: baculovirus-infected Sf9 insect cells, co-expressed with human Csk
Test: Competition nucleotide displacement assay (Mant-ADP, fluorescence anisotropy)
Type: binding
Details: Src^32K (pY527); displacement of Mant-ADP
Protocol: Figure 1 Autoinhibited Itk and Src kinases preferentially bind ADP. (a) Schematic of constructs evaluated in this study. Itk^32K, Src^32K, and Src^32KΔC contain the conserved module of SH3, SH2, and kinase (^32K) domains. Src^32K was truncated by […] to remove its C-terminal tail (inclusive of the Y527 phosphorylation site), generating a construct we refer to as Src^32KΔC (ΔC-tail). (b) Competition nucleotide displacement assay for Itk^32K. 40 μM Itk^32K was incubated with 40 μM Mant-ADP until equilibrium was established. Unlabelled ADP or AMPPNP was titrated into the reaction and fluorescence anisotropy monitored. Comparison of the equilibrium inhibition constants (K i) gives an indication of the relative strength of nucleotide binding. […] (c) Competition nucleotide displacement assay for Src^32K. 40 μM tail-phosphorylated Src^32K (pY527) or doubly phosphorylated Src^32K pY416 (pY527) was incubated with 40 μM Mant-ADP until equilibrium was established. Unlabelled ADP or AMPPNP was titrated into the reaction and fluorescence anisotropy monitored. Solid lines correspond to Src^32K, dashed lines to Src^32K pY416. AMPPNP binds to Src^32K with 20-fold weaker affinity than ADP. […] (d) Omit map showing clear electron density for ADP and a single magnesium ion in the nucleotide-binding pocket of Src. The magnesium is coordinated by Asn391, Asp404, and the α- and β- phosphates of ADP. The β-phosphate is directly coordinated by the guanidinium side chain of Arg388. […]
Since the concentration of ATP in the cell is typically higher than ADP[33],[34], we performed nucleotide competition assays in order to determine which nucleotide is bound in vivo. We measured the concentrations of ADP or AMPPNP required to displace Mant-ADP. […]
The binding constants for ADP and AMPPNP were determined for Src and Itk proteins by fluorescence anisotropy, using 2′/3′-Mant-labelled nucleotides (Jena Bioscience). […] Unlabelled nucleotide was titrated into the reaction and fluorescence anisotropy monitored. The equilibrium inhibition constant for the unlabelled nucleotide was calculated from the fitted curve.

T1 sequence (P05480 85-535): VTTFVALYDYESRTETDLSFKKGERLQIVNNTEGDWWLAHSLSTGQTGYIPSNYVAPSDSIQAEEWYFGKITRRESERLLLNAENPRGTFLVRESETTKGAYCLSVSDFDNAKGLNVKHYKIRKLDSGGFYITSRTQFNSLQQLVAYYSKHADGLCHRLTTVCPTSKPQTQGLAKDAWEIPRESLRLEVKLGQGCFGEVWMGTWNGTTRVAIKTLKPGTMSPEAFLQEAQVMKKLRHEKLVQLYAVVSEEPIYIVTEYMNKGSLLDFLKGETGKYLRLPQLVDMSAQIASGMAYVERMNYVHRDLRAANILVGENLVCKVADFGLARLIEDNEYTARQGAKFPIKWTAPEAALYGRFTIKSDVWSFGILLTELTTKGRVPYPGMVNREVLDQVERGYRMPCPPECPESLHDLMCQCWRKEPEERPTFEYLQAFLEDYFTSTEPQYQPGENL

SMILES: Nc1ncnc2c1ncn2[C@@H]1O[C@H](COP(=O)(O)OP(=O)(O)O)[C@@H](O)[C@H]1O [ADP]
- fold difference in Ki, ADP preferred over AMPPNP: 19 fold
